Assay results: US20190309044A1, “POLYPEPTIDES AND USES THEREOF AS A DRUG FOR TREATMENT OF AUTOIMMUNE DISORDERS” (Compugen Ltd., priority 2017, published 2019)
Several values for one entry are separate records, joined by “and”; a condition that tells them apart may be missing. Equal entries are not always repeated. Entries after “also recorded” stand apart in the source; their conditions may differ.

Key:
male DBA-1 mice = assay: Established collagen induced arthritis (CIA), macroscopic and histological scores; assay type: in vivo, mouse; conditions: Enbrel 5 mg/kg
Experimental: Bovine type II collagen (CII) (RUNMC in house production, batch 03-04-08) at a concentration of 2 mg/ml in acetic acid 0.05M was emulsified in equal volumes of Freund's complete adjuvant (2 mg/ml of Mycobacterium tuberculosis strain H37Ra; Difco, Detroit, Mich.).
On day 0, 10-12 week old male DBA-1 mice (Janvier Elevage, France) (n=95) were immunized i.d. at the base of the tail with 100 μg of bovine CII. On day 21, mice received an intraperitoneal booster injection of 50 μg of CII dissolved in phosphate buffered saline (PBS), and the onset of arthritis occurred a few days after this booster.
Joint inflammation in each paw was scored visually, using a scale of 0-2 per paw with a maximal score of 8 per animal: 0=non inflamed, 1=mild inflammation, 1.5=marked inflammation, and 2=severe inflammation. Scoring was performed three times a week.
Treatment was started in established CIA early after onset of disease (i.e. therapeutic regimen), when the macroscopic scores per animal were between 0.25 and 1.25 (on a scale of 0-8). […] Histology was scored for inflammation and destruction on an arbitrary scale of 0-3, for five different parameters: […]
Joints were fixed for at least 4 days in 4% formaldehyde, decalcified in 5% formic acid, and subsequently dehydrated and embedded in paraffin. […] The severity of inflammation in the joints was scored on a scale of 0-3 (0=no cells, 1=mild cellularity, 2=moderate cellularity, and 3=maximal cellularity). […] Depletion of PG was determined using an arbitrary scale of 0-3, ranging from normal, fully stained cartilage to destained cartilage, fully depleted of PGs. Chondrocyte death was scored on a scale of 0-3 ranging from no loss of chondrocyte nuclei to complete empty cartilage surface. The degree of cartilage surface erosion was scored on a scale of 0-3, ranging from no damage to complete loss of articular cartilage. […] Histopathological changes in the joint were scored on three semiserial sections of the joint spaced 70 μm apart. […]

[1] = system: healthy human skin transplanted onto beige-SCID mice; assay: Humanized psoriasis model, human skin xenografts on beige-SCID mice; assay type: in vivo, mouse; conditions: for proliferation index (% Ki-67 positive cells): vs vehicle; for Healthy Skin, number of grafts / Psoriasiform Skin, number of affected grafts / Partial Psoriasiform With Tendency Towards Healthy skin, number of grafts: histological evaluation, day 28; for epidermal thickness: vs vehicle treated group
Source text: In this model, psoriasis is induced in xenotransplants of healthy human skin transplanted onto beige severe combined immunodeficiency (SCID) mice followed by intradermal (i.d.) injection of IL-2 enriched Peripheral Blood Mononuclear Cells (PBMCs) isolated from blood of psoriasis patients (Nickoloff, 1995; Wrone-Smith, 1996 Gilhar et al., 2002, 2006, 2011). The activity of these compounds was compared to that of Enbrel, a TNF inhibitor which is an approved biological drug for treatment of psoriasis. As a control for model robustness, we used dexamethasone, a steroid with suppressive effects on inflammatory cytokines and chemokines such as TNF-alpha and interferon-gamma which cause severe psoriasis. All treatments were administered intradermally, except for dexamethasone which was given topically.
2.2. Study Protocol A) Healthy human skin pieces with a width of 0.4 mm and surface area of 1.5×1.5 cm were provided from residual skin of routine plastic surgery procedures from the Plastic Surgery Department of the Rambam Medical Center, Israel. In addition, 20 mL blood samples were taken from psoriatic patients. B) Seventy (70) beige-severe combined immunodeficient mice (SCID) (weight ˜20-25 g) were included in this study. Normal healthy human donor skin was transplanted onto the beige-SCID mice as previously described (Nickoloff et al., 1995; Wrone-Smith, 1996; Gilhar et al., 2002, 2006, 2011; Kalish et al., 2009) and the mice were divided into 7 groups. C) Peripheral Blood Mononuclear Cells (PBMCs) isolated from psoriatic patients' blood were cultured in the presence of IL-2 [Prospec, 100 U/mL of RPMI 1640 media, 10% human AB serum (Sigma, St. Louis, Mo.), 1% glutamine, 1% antibiotics (media components; Biological Industries, Kibbutz Beit Haemeck, Israel)] for 14 days, as previously described (Gilhar et al, 2002). D) Four weeks following engraftment, each mouse was injected intra-dermally (i.d.) into the grafted skin lesion, with 1×10^7 activated allogeneic enriched PBMCs from psoriatic patients (FIG. 20). Cells from different psoriasis patients were equally distributed between treatment groups so that each patient is represented in each treatment group. E) On the day of PBMCs injection into the skin grafts, mice were divided randomly into treatment groups (n=9-10 mice per group) and administration of all drugs started (FIG. 20). All tested compounds including the vehicle were given intradermally (intralesional), three times a week, except for dexamethasone which was given topically for 14 consecutive days (Table 3).
F) Twenty eight days after starting the injections and treatment, skin was harvested (FIG. 20). Grafts were analyzed for the following psoriatic parameters by histology: epidermal thickening (acanthosis), suprapapillary epidermal thinning (papillomatosis), hyperkeratosis, parakeratosis, orthokeratosis, agranulosis-hypogranulosis, appearance of neutrophils in the upper spinous layer or in the corneal cell layer—Munro microabscess, regular elongation of rete ridges, angiogenesis, edema and dilated tortuous blood vessels in the dermal papilla and mononuclear cell infiltrate in the papillary dermis. Epidermal thickness was measured as detailed below, and HLA-DR, ICAM-1, Ki-67 and immune infiltrates (anti-CD3 stain) were evaluated by immunohistochemistry (IHC).
The entire skin graft was excised and placed in 10% formal saline overnight. Then, the specimens were place in 70% ethanol and were embedded according to the standard H&E protocol. Histological assessment of the skin grafts was performed by light microscopy and evaluated by two blinded observers [the second observer evaluated random slides (about 25% of all slides) to compare the data obtained by the first observer. […] Epidermal thickness was determined with an ocular micrometer at a minimum of 50 points along the epidermis selected to represent points of maximal and minimal thickness.
Representative grafts were allocated for IHC analysis. […]

psoriasis patients = conditions: at week 12; cited from earlier work
[2] = system: TcK and macrophages co-cultures; assay: TcK:macrophage co-culture cytokine secretion, healthy volunteers; assay type: cell-based, human; conditions: buffy coats of healthy volunteers
Experimental: • Purified CD4+ cells (2×10^6 cells/ml) are activated for 6 days in complete medium containing IL-15 (100 ng/ml), IL-6 (100 ng/ml) and TNFa (25 ng/ml).
TcKs are added to macrophage culture following removal of existing culture media at a ratio of 4:1 (5×10^4 cells/well/CD4^+ T cells plus 2×10^5 cells/well CD14^+ Macrophages). C1ORF32 ECD-Fc (SEQ ID NO:43) or Control IgG are added at 1, 3, 10, 30 μg/ml. For additional controls co-cultures are added with vehicle or with medium only (Wennink et al., 2012).
After 24 hrs of culture, cytokines (IL-10, IFN-α, IL-6, IL-12, RANTES, IL-13, IL-15, IL-17, MIP-1α, GM-CSF, IFNγ, TNFα, IL-1RA, IL-7, IL-1B, eotaxin, IL-2 IL-4 and IL-2R) are analyzed using ELISA and/or Luminex.
Co-culture of TcK with autologeuos ex-vivo differentiated macrophages mimics one of the crucial pathways mediating synovial macrophage activation in RA thus serving as a translational tool for evaluating the therapeutic potential of drug candidates. Therefore the effect of C1ORF32 ECD-Fc (SEQ ID NO:43) was tested on the secretion of a range of pro-inflammatory and anti-inflammatory cytokines in such co-cultures. Two studies were carried out, one in which buffy coats from healthy volunteers was used and another study in which the responses of RA patients blood cells responses were compared to that of healthy voluntiers in which blood was used rather than buffy coats.

MS patients' PBMCs = assay: Proliferation and cytokine secretion of PBMCs from MS patients; assay type: cell-based, human
Experimental: PBMCs were taken from eight MS patients with diagnosed relapsing-remitting disease who have experienced a relapse 1-2 days prior to blood drawing.
PBMCs were plated in a flat-bottom 96-well plate at 1e6 cells/well. The cells were cultured in the presence of anti-CD3 (0.5 ug/ml), MS-specific peptide MBP85-96 (10 ug/ml), or tetanus toxoid peptide TT830-843 (10 ug/ml). C1ORF32 ECD-Fc (SEQ ID NO: 43) or Control Ig were added to the cuture at the indicated concentrations. Two replicate plates were set to study for the effect of C1ORF32 ECD-Fc (SEQ ID NO: 43) on proliferation and on pro-inflammatory and anti-inflammatory cytokines secretion. To test for proliferation, the cultures were pulsed on day +1 of culture with 1uCi of tritiated thymidine and then harvested 3 days later on day +4 of culture. For cytokine analysis, super natantes from a replicate cultures were collected on day +4 of culture and tested using Millipore multiplex assay.

[3] = system: synovial-like T-cell - macrophage co-cultures; assay: Synovial-like T-cell - macrophage co-cultures from RA patients not responding to TNF blockers, TNFa secretion; assay type: cell-based, human
Source text: The therapeutic potential of C1ORF32-ECD-FC (SEQ ID #43) for treating RA was studied in co-cultures of activated T cells and macrophages that were modified to mimic the deleterious interaction of these cells in RA synovium. This interaction drives the secretion of pro-inflammatory cytokines that play a major role in the pathology of RA, leading to progressive joint inflammation and to joint destruction. Thus, these co-cultures provide a translational tool to evaluate the effect of potential drugs for treatment of RA (Wenink et al., Ann Rheum Dis 2012; 71:1 80-83).
Purified T cells and myeloid cells from blood of RA patients that fail to respond to treatment with TNF blockers were activated for 6 days with TNFa, IL-6 and IL-15 and co-cultures with Monocytes derived macrophages that were generated by activation of CD14+ monocytes with M-CSF for 6 days.
The amounts were administered as follows: FIG. 33: 30microg/ml of each protein; FIG. 34: 3, 10, 30microg/ml of each protein as shown.

## Enbrel
Male DBA-1 mice
  bone erosions, histology: significant reduction
[1]; IHC
  proliferation index (% Ki-67 positive cells): trend of decrease
[1]
  Healthy Skin, number of grafts: 3/9
  Psoriasiform Skin, number of affected grafts: 6/9
  epidermal thickness: no substantial effect; also recorded: no significant reduction
Psoriasis patients
  psoriasis patients achieving PASI 75: Forty nine

## C[C@@H]1C[C@H]2[C@@H]3CCC4=CC(=O)C=C[C@]4(C)[C@@]3(F)[C@@H](O)C[C@]2(C)[C@@]1(O)C(=O)CO [dexamethasone]
[1]
  Healthy Skin, number of grafts: 7/10
  Partial Psoriasiform With Tendency Towards Healthy skin, number of grafts: 1
  Psoriasiform Skin, number of affected grafts: 2 and 2/10
[1]; listed as Dexa
  Partial Psoriasiform With Tendency Towards Healthy skin, number of grafts: 1/10
  Psoriasiform Skin, number of affected grafts: 2/10
[1]; mouse, in vivo
  grafts with moderate lymphocytic infiltration: 1/10

## C1ORF32 ECD-Fc (SEQ ID NO: 43): human-human fusion protein: human C1ORF32 ECD fused to human immunoglobulin Fc (SEQ ID NO:43)
[1]; IHC
  expression of HLA-DR, ICAM-1 and Ki-67: decreased expression
  proliferation index (% Ki-67 positive cells): trend towards decrease
[1]; IHC, listed as C1ORF ECD-Fc (SEQ ID NO:43)
  proliferation index (% Ki-67 positive cells): most pronounced reduction
[1]
  Healthy Skin, number of grafts: 5/9
  Psoriasiform Skin, number of affected grafts: 4/9
[1]; summary in detailed description
  cases in which disease symptoms were eliminated: about a third of the cases
[1]; listed as C1ORF ECD-Fc (SEQ ID NO:43)
  epidermal thickness: significant reduction
[2]
  secretion of TNFa, RANTES, MIP-1a, GM-CSF and IL-5: inhibited
MS patients' PBMCs; absence of activation
  proliferation, secretion of IFNg, IL-17 and TNFa: no effect
MS patients' PBMCs; absence of activation, in some of the donors
  IL-10, IL-4, TGFb and IL-6: elevation
MS patients' PBMCs; activated ex-vivo with MBP85-96
  IL-4, IL-10, TGFb and IL-6 secretion: increase
[3]; Example 20, 30 microg/ml
  TNFa secretion: decreased the secretion of TNFα
  TNFa secretion in one of the donors: inhibited TNFα secretion
[3]; Example 21, 3, 10, 30 microg/ml
  TNFa secretion: decreased the secretion of TNFa; also recorded: inhibition of TNFa secretion in a dose dependent manner
